ChEMBL document CHEMBL5120862, “Novel non-covalent LSD1 inhibitors endowed with anticancer effects in leukemia and solid tumor cellular models” (Eur J Med Chem, 2022)
Activity calls are given as the source filed them. The calls are words filed in the database; no cut-off is given here.

What was measured:
[1] = molecular target: T1, MAO-B (amine oxidase [flavin-containing] B) (Homo sapiens, UniProt P27338); experiment: Inhibition of human MAO-B using p-tyramine as substrate at 100 uM by fluorimetric analysis relative to control; conditions: human MAO-B enzyme, probe p-tyramine
T1 sequence (P27338 whole entry): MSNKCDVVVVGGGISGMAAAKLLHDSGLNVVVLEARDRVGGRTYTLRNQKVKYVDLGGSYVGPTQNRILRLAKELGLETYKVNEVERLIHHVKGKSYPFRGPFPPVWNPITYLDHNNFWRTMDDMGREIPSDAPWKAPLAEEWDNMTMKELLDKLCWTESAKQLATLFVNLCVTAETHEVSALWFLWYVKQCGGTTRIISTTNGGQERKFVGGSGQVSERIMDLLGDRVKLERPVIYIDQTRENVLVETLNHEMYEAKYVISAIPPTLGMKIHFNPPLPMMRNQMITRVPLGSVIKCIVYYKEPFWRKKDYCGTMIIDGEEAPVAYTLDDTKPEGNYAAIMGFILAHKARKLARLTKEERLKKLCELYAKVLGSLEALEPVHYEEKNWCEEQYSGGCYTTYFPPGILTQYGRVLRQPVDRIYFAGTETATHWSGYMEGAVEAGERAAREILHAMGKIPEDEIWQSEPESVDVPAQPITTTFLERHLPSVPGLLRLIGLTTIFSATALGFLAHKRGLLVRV

[2] = Cytotoxicity against human AHH-1 cells assessed as residual cell viability at 1 uM measured after 72 hrs by MTT assay relative to control; format: toxicity, cell-based; conditions: read-out: Activity
[3] = molecular target: Lysine-specific histone demethylase 1A (Homo sapiens) (UniProt O60341); experiment: Inhibition of LSD1 in human MV4-11 cells assessed as increase in CD86 expression level incubated for 24 hrs by qRT-PCR analysis; format: cell-based; conditions: dose 0.2-1 µM
[4] = tested on: RD; experiment: Antiproliferative activity against human RD cells assessed as reduction in live cells at 2 uM incubated for 72 hrs by calceinAM/propidium iodide staining based fluorescence microscopy; format: functional, cell-based
[5] = tested on: MDA-MB-231; experiment: Antiproliferative activity against human MDA-MB-231 cells assessed as inhibition of cell growth measured after 72 hrs by MTT assay; format: functional, cell-based; conditions: MDA-MB-231, 72 h
[6] = molecular target: Lysine-specific histone demethylase 1A (Homo sapiens) (UniProt O60341); experiment: Inhibition of LSD1 in human MV4-11 cells assessed as increase in H3K4me2 level at 0.2 to […] incubated for 24 hrs by Western blot analysis; format: cell-based; conditions: dose 0.2-2.5 µM
[7] = molecular target: T2, Histone-lysine N-methyltransferase EHMT2 (Homo sapiens, UniProt Q96KQ7); experiment: Inhibition of G9a (unknown origin) assessed as reduction in substrate methylation using histone H3 and SAM as substrate measured after 15 to 60 mins by microfluidic capillary electrophoresis analysis
T2 sequence (Q96KQ7 whole entry): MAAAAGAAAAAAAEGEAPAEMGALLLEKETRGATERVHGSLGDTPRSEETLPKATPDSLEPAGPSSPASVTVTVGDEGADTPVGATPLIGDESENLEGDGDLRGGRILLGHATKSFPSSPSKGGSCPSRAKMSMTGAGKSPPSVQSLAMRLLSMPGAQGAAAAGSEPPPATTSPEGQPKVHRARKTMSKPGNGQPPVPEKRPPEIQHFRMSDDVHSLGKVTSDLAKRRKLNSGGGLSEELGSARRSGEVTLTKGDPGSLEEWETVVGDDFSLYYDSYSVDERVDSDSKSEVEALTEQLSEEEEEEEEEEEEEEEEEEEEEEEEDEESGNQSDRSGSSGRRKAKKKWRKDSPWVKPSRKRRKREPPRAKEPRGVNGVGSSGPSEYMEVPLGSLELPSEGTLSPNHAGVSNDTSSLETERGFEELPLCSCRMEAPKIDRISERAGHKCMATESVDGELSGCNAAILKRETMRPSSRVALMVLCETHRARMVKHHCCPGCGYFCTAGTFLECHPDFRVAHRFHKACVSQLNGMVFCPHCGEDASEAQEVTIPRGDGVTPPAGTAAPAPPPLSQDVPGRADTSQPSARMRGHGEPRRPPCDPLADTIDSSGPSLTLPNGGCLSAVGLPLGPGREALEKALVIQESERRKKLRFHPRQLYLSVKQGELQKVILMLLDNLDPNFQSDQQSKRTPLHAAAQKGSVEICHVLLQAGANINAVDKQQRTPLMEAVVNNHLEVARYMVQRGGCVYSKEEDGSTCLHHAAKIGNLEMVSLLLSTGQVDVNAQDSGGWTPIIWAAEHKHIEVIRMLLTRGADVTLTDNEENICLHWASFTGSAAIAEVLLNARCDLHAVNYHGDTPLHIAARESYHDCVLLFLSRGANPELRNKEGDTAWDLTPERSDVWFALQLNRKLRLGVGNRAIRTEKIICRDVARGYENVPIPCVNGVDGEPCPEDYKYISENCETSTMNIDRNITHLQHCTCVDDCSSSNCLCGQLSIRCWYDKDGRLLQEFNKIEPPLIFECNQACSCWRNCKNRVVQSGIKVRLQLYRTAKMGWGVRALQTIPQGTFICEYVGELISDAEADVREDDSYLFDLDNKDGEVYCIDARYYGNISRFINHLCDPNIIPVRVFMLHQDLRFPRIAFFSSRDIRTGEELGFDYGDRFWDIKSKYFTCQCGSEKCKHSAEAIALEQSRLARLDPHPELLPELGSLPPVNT

[8] = tested on: MV4-11; experiment: Antiproliferative activity against human MV4-11 cells assessed as inhibition of cell growth at 1 uM incubated for 144 hrs by trypan blue staining based analysis; format: functional
[9] = tested on: RD; experiment: Antiproliferative activity against human RD cells assessed as inhibition of cell growth incubated for 24 hrs; format: functional, cell-based
[10] = tested on: MV4-11; experiment: Induction of apoptosis in human MV4-11 cells assessed as accumulation of cells at sub-G1 phase incubated for 24 hrs; format: functional, cell-based; conditions: dose 0.2-25 µM, DDE = dose-dependent effect
[11] = tested on: SJRH30; experiment: Antiproliferative activity against human Rh30 cells assessed as inhibition of cell growth incubated for 72 hrs; format: functional, cell-based; conditions: SJRH30, 72 h

## COc1cc2c(NC3CCN(Cc4ccccc4)CC3)nc(NCCCN(C)C)nc2cc1OCc1ccccc1
[1]
  inhibition at 100 µM: 0.5%
[2]
  viability at 72 h, 1 µM: 90%
[3]
  inhibition: Active
[4]
  Activity: Active
[5]
  IC50: 0.4 µM
[6]
  inhibition: Active
[7]
  Ki: 39.4 µM
[8]
  inhibition: Active
[9]
  IC50: 1.23 µM
[10]
  Activity: Dde
[11]
  IC50: 0.96 µM
